Experimental findings from patent publication US8674113B2, “Compounds” (Boehringer Ingelheim International GmbH, priority 2010, dated 2014) are described below.

Read-outs that look alike come from different tables or passages of the source.

For experiment [1], the target named is recombinant human mPGES-1 (Homo sapiens (Human), UniProt O14684). In words: mPGES-1 enzyme assay (HTRF detection of PGE2). The class given is biochemical. As to the method:
Microsomes from Rosetta E. coli bacteria expressing recombinant human mPGES-1 can be derived as described below:
Inoculate 5 ml LB with Ampicilin (50 μg/ml) and Chloramphenicol (34 μg/ml) with bacteria from freeze culture. Incubate 8 h at 37° C. with 200 rpm. Thereafter, inoculate 500-1000 ml LB containing Amp and Chloro with the 5 ml on culture and grow to OD640 of 0.8-1.0. Chill the culture to +4° C. before induction. Induce the culture with IPTG at a final concentration of 400 μM. Express the protein at room temp 18-23° C. with 200 rpm shaking over night.
The following steps can be performed on the following day: • 1. Spin down the cells in 250 ml centrifuge flasks for 15 min at 7000 rpm (Beckmann Coulte Avanti J-E centrifuge) • 2. Dissolve the pellet from 250 ml culture in 12.5 ml homogenization buffer • 3. (15 mM Tris-HCL pH8, 1 mM EDTA pH8, […], 2.5 mM GSH, 1 Tablet Protease inhibitor per 50 ml buffer) • 4. Disintegrate the cells by sonication, 5×10 seconds at 48% amplitude of a 750 W sonifier • 5. Add 2.5 ml MgCl2 (100 mM) and DNase 12.5 μl (0.8 mg/ml) and incubate on ice for 30 min • 6. Spin down the bacteria debris and save the supernatant, 7000 rpm for 15 min • 7. Isolate the protein containing membranes in the supernatant by ultracentrifugation 120000×g for 2 hour at 4° C. (Sorvall T880 rotor). • 8. Discard the supernatant and dissolve the pellet in 20 mM Potassium phosphate buffer pH7.4 (KH2PO4 and K2HPO4) buffer by sonication (5×10 s, 30% of a 50 W sonifier) and aliquot the enzyme and store aliquots at −80° C.
Before each experiment is performed an aliquot of the enzyme is thawed and it can then be dissolved in 0.1 M Potassium phosphate buffer pH7.4 (KH2PO4 and K2HPO4) buffer containing 2.5 mM GSH.
The aim of this assay is to determine the affinity of a test compound for the mPGES-1 enzyme.
47 μl of recombinant human mPGES-1 (˜0.5 μg protein/well) containing microsomal suspension in a buffer containing GSH, (2.5 mmol/L L-Glutathione reduced, dissolved in 0.1 mol/L Phosphat Buffer pH 7.4) is dispensed in a 384-well plate and thereafter 1 μl of the test compound(s) is/are added and incubated for 25 minutes at room temperature. The enzyme reaction is started by the addition of 2 ul PGH2 (final conc 2 μM) disolved in water-free Diglyme. After 60 seconds the reaction is terminated by addition of a stop solution containing FeCl2 (10 μL 0.074 mol/l FeCl2). The samples are diluted between 1:25 in PBS (Phosphate Buffered Saline). 10 μl of the diluted samples are transferred to 384-well low volume plate. In order to quantify the amount of PGE2 that has been formed, a homogenous time resolved fluorescent (HTRF) detecting of PGE2 has been performed using a commercially available kit from Cisbio according to the manufactures recommendation. This HTRF-based assay has been described in detail (see: Goedken et al., J Biomol Screen, 2008, 13(7), 619-625). Briefly, the diluted samples are mixed with 5 μl PGE2-d2 conjugate and 5 μl anti-PGE2 cryptate conjugate. After an incubation period of the plates over night, the fluorescence is measured by the use of an appropriate microplate reader.
The fluorescence of Europium cryptate (maxex=307 nm, maxem=620 nm) and d2-PGE2 (maxex=620 nm, maxem=665 nm) are measured.
The extent of the specific HTRF is measured as a ratio of the emission intensity at 665 nm vs. that at 620 nm at an excitation puts of 320 nm. The quantification plate contains also wells with different concentrations of PGE2 as calibration curve for the calculation of the PGE2 concentrations from the HTRF ratio values.
From all mPGES enzyme assay the background is subtracted and the IC50 is calculated over a nonlinear regression with conventional software.
For orientation: Time-resolved FRET reads energy transfer from a long-lived donor to a nearby acceptor.

For the next experiment, the target named is mPGES-1 in A549 cells (Homo sapiens (Human), UniProt O14684). In words: A549 cell-based assay (PGE2 formation, 50% human serum). In outline: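 A549 cells in F-12K with 50% human serum were stimulated 20-24 h with 5 ng/ml IL-1β and 10 nM arachidonic acid in presence of compound or vehicle. PGE2 in the cell-free medium was measured by HTRF, normalised to vehicle (100%). IC50 from 6-8 point titrations.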

[2] abbreviates: recombinant human mPGES-1 microsomes, PGH2 2 μM, 60 seconds, read-out: mPGES-1 inhibitory effect IC50 in the enzyme assay.
Setting [3] is: IL-1β 5 ng/ml, 10 nM arachidonic acid, 20-24 h, read-out: mPGES-1 inhibitory effect IC50 in the cell assay.

recombinant human mPGES-1, sequence (O14684 whole entry): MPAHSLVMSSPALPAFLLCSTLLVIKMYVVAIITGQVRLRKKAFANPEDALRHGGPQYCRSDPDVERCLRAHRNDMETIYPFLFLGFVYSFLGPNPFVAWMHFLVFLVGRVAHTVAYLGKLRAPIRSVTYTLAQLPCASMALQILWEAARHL
mPGES-1 in A549 cells, sequence (O14684 whole entry): as above

As for `CC(C)(C)C(=O)NCc1ccc(Cl)c(Nc2nc3cc(C(=O)N[C@H]4CC[C@H](C(F)(F)F)CC4)c(N4CCC(C(F)(F)F)CC4)cc3n2CC(F)F)c1Cl` [Example 75], the IC50 (usually the concentration needed to halve the response being measured) in experiment [1] (setting [2]) came to 1 nM; on mPGES-1 in A549 cells (setting [3]) it was 2 nM.
Turning to `Cn1c(Nc2c(Cl)ccc(CNC(=O)C(C)(C)F)c2Cl)nc2cc(C(=O)Nc3ccc(OC(F)(F)F)cc3)c(N3CC[C@@H](F)C3)cc21` [Example 239], the IC50 stood at 3.5 nM in experiment [1] (setting [2]) and 5 nM on mPGES-1 in A549 cells (setting [3]).
Regarding `Cn1c(Nc2c(Cl)ccc(CNC(=O)C(C)(C)C)c2Cl)nc2cc(C(=O)NC3(c4ccc(F)cc4)CC3)c(N3CCC(C(F)(F)F)CC3)cc21` [Example 58], the IC50 in experiment [1] (setting [2]) turned out to be 3 nM; on mPGES-1 in A549 cells (setting [3]), 1 nM.
Regarding `Cn1c(Nc2c(Cl)ccc(CNC(=O)C(C)(C)C)c2Cl)nc2cc(C(=O)N[C@H]3CC[C@H](C(F)(F)F)CC3)c(N3CCC(F)(F)CC3)cc21` [Example 69], the values for the IC50 (in experiment [1] (setting [2]); on mPGES-1 in A549 cells (setting [3])) were 2 nM and 1 nM, respectively.
For `Cn1c(Nc2c(Cl)ccc(CNC(=O)C(C)(C)C)c2Cl)nc2cc(C(=O)NCC(F)(F)F)c(N3CCc4ccc(Cl)cc4C3)cc21` [Example 32], in that order: 2 nM and 6 nM.
Turning to `Cn1c(Nc2c(Cl)ccc(CNC(=O)C(C)(C)C)c2Cl)nc2cc(C(=O)Nc3ccc(F)c(Cl)c3)c(NCC(F)F)cc21` [Example 17], the IC50 in experiment [1] (Table C comparison of selected benzimidazoles, read-out: Enzym IC50) is 3 nM; in experiment [1] (setting [2]), 3 nM; on mPGES-1 in A549 cells (setting [3]) it was 6 nM; on mPGES-1 in A549 cells (Table C comparison of selected benzimidazoles, read-out: Cell IC50), 6 nM.
Take `Cn1c(Nc2c(Cl)ccc(CNC(=O)C(C)(C)C(F)(F)F)c2Cl)nc2cc(C(=O)Nc3ccc(F)c(Cl)c3)c(N3CCC(C(F)(F)F)CC3)cc21` [Example 232]: the IC50 in experiment [1] (setting [2]) amounted to 1.7 nM; at mPGES-1 in A549 cells (setting [3]) it was 1.4 nM.
`CC1(O)CCN(c2cc3c(cc2C(=O)N[C@H]2CC[C@H](C(F)(F)F)CC2)nc(Nc2c(Cl)ccc(CNC(=O)C(C)(C)F)c2Cl)n3CC(F)F)CC1` [Example 78]: the IC50 is 2 nM in experiment [1] (setting [2]) and < 1 nM on mPGES-1 in A549 cells (setting [3]).
The corresponding values for `Cn1c(Nc2c(Cl)ccc(CNC(=O)C(C)(C)F)c2Cl)nc2cc(C(=O)NC3CC(F)(F)C3)c(N3CCC(C(F)(F)F)CC3)cc21` [Example 256] are 3.9 nM and 1 nM.
As for `Cn1c(Nc2c(Cl)ccc(CNC(=O)C(C)(C)C)c2Cl)nc2cc(C(=O)NCC(F)(F)C(F)(F)F)c(N3CCC(F)(F)C3)cc21` [Example 50], the 50% inhibitory concentration (IC50) in experiment [1] (setting [2]) came out at 3 nM; on mPGES-1 in A549 cells (setting [3]), 2 nM.
The corresponding values for `Cn1c(Nc2c(Cl)ccc(CNC(=O)C(C)(C)C)c2Cl)nc2cc(C(=O)NC(Cc3ccccc3)C(F)(F)F)c(N3CCC(F)(F)C3)cc21` (centres unmarked) [Example 48] are 2 nM and 8 nM.
Regarding `Cn1c(Nc2c(Cl)ccc(CNC(=O)C(C)(C)C)c2Cl)nc2cc(C(=O)NCC(F)(F)F)c(N3CCC(C(F)(F)F)CC3)cc21` [Example 28], the figures for the half-maximal inhibitory concentration (IC50) (in experiment [1] (setting [2]); at mPGES-1 in A549 cells (setting [3])) were 2 nM and 1.5 nM, respectively.
The corresponding values for `Cn1c(Nc2c(Cl)ccc(CNC(=O)C(C)(C)C)c2Cl)nc2cc(C(=O)Nc3cc(C(C)(C)C)on3)c(N3CCC(C(F)(F)F)CC3)cc21` [Example 159] are 3 nM and 4 nM.
For `CC(C)(C)C(=O)NCc1ccc(Cl)c(Nc2nc3cc(C(=O)N[C@H]4CC[C@H](C(F)(F)F)CC4)c(N4CC5CC5C4)cc3n2C2(C(C)(C)O)CC2)c1Cl` (some centres unmarked) [Example 164], in that order: 4 nM and 7 nM.
For `Cn1c(Nc2c(Cl)ccc(CNC(=O)[C@@](C)(O)C(F)(F)F)c2Cl)nc2cc(C(=O)Nc3ccc(F)c(Cl)c3)c(N3CC[C@@H](F)C3)cc21` [Example 247], in that order: 3 nM and 3 nM.
For `Cn1c(Nc2c(Cl)ccc(CNC(=O)[C@@](C)(O)C(F)(F)F)c2Cl)nc2cc(C(=O)Nc3cccc(C(F)(F)F)n3)c(N3CCC(C(F)(F)F)CC3)cc21` [Example 243], the IC50 was 2.9 nM in experiment [1] (setting [2]) and 4.5 nM at mPGES-1 in A549 cells (setting [3]).
As to `Cn1c(Nc2c(Cl)ccc(CNC(=O)C(C)(C)C)c2Cl)nc2cc(C(=O)N[C@H]3CC[C@H](C(F)(F)F)CC3)c(N3CCN(C4CC4)CC3)cc21` [Example 108], the IC50 in experiment [1] (setting [2]) was 1 nM; at mPGES-1 in A549 cells (setting [3]), < 1 nM.
The corresponding values for `Cn1c(Nc2c(Cl)ccc(CNC(=O)C(C)(C)C(F)(F)F)c2Cl)nc2cc(C(=O)NC3CC(F)(F)C3)c(N3CCC(C(F)(F)F)CC3)cc21` [Example 257] are 1.9 nM and 3.5 nM.
Regarding `Cn1c(Nc2c(Cl)ccc(CNC(=O)[C@](C)(O)C(F)(F)F)c2Cl)nc2cc(C(=O)NC3CC(F)(F)C3)c(N3CCC(C(F)(F)F)CC3)cc21` [Example 259], the values for the IC50 (in experiment [1] (setting [2]); on mPGES-1 in A549 cells (setting [3])) were 4.1 nM and 2 nM, respectively.
For `Cn1c(Nc2c(Cl)ccc(CNC(=O)C(C)(C)C)c2Cl)nc2cc(C(=O)N[C@H]3CC[C@H](C(F)(F)F)CC3)c(N3CCC4(CC4)C3)cc21` [Example 121], in that order: 3 nM and 2 nM.
Turning to `CN(Cc1ccc(F)cc1)c1cc2c(cc1C(=O)N[C@H]1CC[C@H](C(F)(F)F)CC1)nc(Nc1c(Cl)ccc(CNC(=O)C(C)(C)C)c1Cl)n2C` [Example 110, N-(trans-4-Trifluoromethyl-cyclohexyl)-2-{2,6-dichloro-3-[(2,2-dimethyl-propionylamino)-methyl]-phenylamino}-6-[N-methyl-N-(4-fluorobenzyl)amino]-1-methyl-1H-benzimidazole-5-carboxylic acid amide], the IC50 in experiment [1] (setting [2]) was 2 nM; at mPGES-1 in A549 cells (setting [3]), 1.6 nM.
For `Cn1c(Nc2c(Cl)ccc(CNC(=O)c3ccc(N)cc3Cl)c2Cl)nc2cc(C(=O)NCCC(F)(F)F)c(N3CCC(C(F)(F)F)CC3)cc21` [Example 177], in that order: 2 nM and 3 nM.
For `Cc1nc(C(F)(F)F)c(CNC(=O)c2cc3nc(Nc4c(Cl)ccc(CNC(=O)C(C)(C)C)c4Cl)n(C)c3cc2N2CCC(C(F)(F)F)CC2)s1` [Example 158], in that order: 4 nM and 4 nM.
As for `Cn1c(Nc2c(Cl)ccc(CNC(=O)c3cccc(O)c3)c2Cl)nc2cc(C(=O)NCCC(F)(F)F)c(N3CCC(C(F)(F)F)CC3)cc21` [Example 178], the half-maximal inhibitory concentration (IC50) in experiment [1] (setting [2]) came out at 5 nM; on mPGES-1 in A549 cells (setting [3]), 28 nM.
In the case of `Cn1c(Nc2c(Cl)ccc(CNC(=O)C(C)(C)C)c2Cl)nc2cc(C(=O)Nc3ccc(F)c(Cl)c3)c(N3CC4CC4C3)cc21` (centres unmarked) [Example 65], the IC50 (in experiment [1] (setting [2]); on mPGES-1 in A549 cells (setting [3])) was 1 nM throughout.
Regarding `Cn1c(Nc2c(Cl)ccc(CNC(=O)C(C)(C)C)c2Cl)nc2cc(C(=O)N[C@H]3CC[C@H](C(F)(F)F)CC3)c(N3CCC(C(F)(F)F)C3)cc21` (some centres unmarked) [Example 100], the IC50 in experiment [1] (setting [2]) was 3 nM; on mPGES-1 in A549 cells (setting [3]) it was 1 nM.
As to `Cn1c(Nc2c(Cl)ccc(CNC(=O)C(C)(C)C)c2Cl)nc2cc(C(=O)N[C@H]3CC[C@H](C(F)(F)F)CC3)c(N3C4CCC3CC4)cc21` [Example 92], the half-inhibitory concentration (IC50) is 2 nM in experiment [1] (setting [2]) and 1.4 nM on mPGES-1 in A549 cells (setting [3]).
